Data as given in EP4711368A1 (priority 2023, dated 2024).
Where two headings read alike, the source gives them in different places.

What was measured:
[1] = system: SD rats; conditions: rat, in vivo; for MLD: iv; for Onset time: test concentration or dose not given here; for Righting feflex duration: test concentration or dose not given here; for Sedation Duration: test concentration or dose not given here
[2] = system: SD rats; experiment: animal or person; format: in vivo; conditions: iv; for Minimal effective analgesic dose / Minimal effective anesthetic dose / Onset time / Righting feflex duration / Sedation Duration: rat, in vivo; for minimal effective dose: Rattus norvegicus
[3] = read-out: Minimal effective analgesic dose
[4] = read-out: Minimal effective anesthetic dose

## CC(=O)OCCC1N=C(c2ccccn2)c2cc(Br)ccc2-n2c(C)cnc21 (centres unmarked) [Compound 145]
[1]
  TI: 6.0
  MLD: 30 mg/kg
[2]
  Minimal effective analgesic dose: 20 mg/kg
  Minimal effective anesthetic dose: 5.0 mg/kg
  Onset time: 0.2 to 0.4 min
  Righting feflex duration: 0.5 to 14.3 min
  Sedation Duration: 33.1 to 88.2 min

## Cc1cnc2n1-c1ccc(Br)cc1C(c1ccccn1)=NC2CCOC(=O)C(C)C (centres unmarked) [Compound 146]
[1]
  TI: 5.0
  MLD: 5 mg/kg
[2]
  Minimal effective anesthetic dose: 1.0 mg/kg
  Onset time: 0.3 to 0.6 min
  Righting feflex duration: 3.7 to 9.7 min
  Sedation Duration: 17.3 to 27.1 min

## CCC(=O)OCCC1N=C(c2ccccn2)c2cc(Br)ccc2-n2c(C)cnc21 (centres unmarked) [Compound 147]
[1]
  TI: 6.0
  MLD: 15 mg/kg
[2]
  Minimal effective anesthetic dose: 2.5 mg/kg
  Onset time: 0.2 to 0.5 min
  Sedation Duration: 27.0 to 48.7 min

## Cc1cnc2n1-c1ccc(Br)cc1C(c1ccccn1)=NC2CCOC(=O)CCl (centres unmarked) [Compound 148]
[1]
  TI: 33.3
  MLD: 60 mg/kg
[2]
  Minimal effective anesthetic dose: 1.8 mg/kg
  Onset time: 0.2 to 1.1 min
  Righting feflex duration: 1.0 to 60.8 min
  Sedation Duration: 20.1 to 82.4 min

## Cc1cnc2n1-c1ccc(Br)cc1C(c1ccccn1)=NC2CCOC(=O)CCCl (centres unmarked) [Compound 150]
[1]
  TI: 5.5
  MLD: 13.7 mg/kg
[2]
  Minimal effective anesthetic dose: 2.5 mg/kg
  Onset time: 0.2 to 0.4 min
  Righting feflex duration: 0.8 to 13.5 min
  Sedation Duration: 16.9 to 33.9 min

## C=CC(=O)OCCC1N=C(c2ccccn2)c2cc(Br)ccc2-n2c(C)cnc21 (centres unmarked) [Compound 151]
[1]
  TI: 16.3
  MLD: 29.4 mg/kg
[2]
  Minimal effective anesthetic dose: 1.8 mg/kg
  Onset time: 0.2 to 3.4 min
  Righting feflex duration: 3.7 to 38.6 min
  Sedation Duration: 19.0 to 68.4 min

## Cc1cnc2n1-c1ccc(Br)cc1C(c1ccccn1)=NC2CCOC(=O)C1COC1 (centres unmarked) [Compound 153]
[1]
  TI: 2.7
  MLD: 20 mg/kg
[2]
  Minimal effective anesthetic dose: 7.5 mg/kg
  Onset time: 0.3 to 0.4 min
  Righting feflex duration: 2.9 to 5.8 min
  Sedation Duration: 20.0 to 21.9 min

## CCOC(=O)OCCC1N=C(c2ccccn2)c2cc(Br)ccc2-n2c(C)cnc21 (centres unmarked) [Compound 154]
[1]
  TI: 2.0
  MLD: 7.5 mg/kg
[2]
  Minimal effective anesthetic dose: 3.8 mg/kg
  Onset time: 0.5 to 0.9 min
  Righting feflex duration: 1.3 to 6.2 min
  Sedation Duration: 14.1 to 17.0 min

## Cc1cnc2n1-c1ccc(Br)cc1C(c1ccccn1)=NC2CCOC(=O)N(C)C.O=S(=O)(O)c1ccccc1 (centres unmarked) [Compound 156D]
[1]
  TI: >1.5
  MLD: >7.5 mg/kg
[2]
  Minimal effective anesthetic dose: 5.0 mg/kg
  Onset time: 0.2 to 0.6 min
  Righting feflex duration: 0.6 to 10.9 min
  Sedation Duration: 12.8 to 36.9 min

## Cc1cnc2n1-c1ccc(Br)cc1C(c1ccccn1)=NC2CCOC(=O)N(C)C (centres unmarked) [Compound 156]
[1]
  TI: 11.1
  MLD: 20 mg/kg
[2]
  Minimal effective anesthetic dose: 1.8 mg/kg
  Onset time: 0.2 to 0.4 min
  Righting feflex duration: 1.7 to 31.9 min
  Sedation Duration: 9.3 to 91.5 min

## CC(=O)OC1N=C(c2ccccn2)c2cc(Br)ccc2N(C)C1=O (centres unmarked) [Compound 164]
[1]
  TI: 8.0
  MLD: 40 mg/kg
[2]
  Minimal effective anesthetic dose: 5.0 mg/kg
  Onset time: 0.2 to 1.0 min
  Righting feflex duration: 1.2 to 50.4 min
  Sedation Duration: 116.7 to 284.0 min

## CC(C)OC(=O)OC1N=C(c2ccccn2)c2cc(Br)ccc2N(C)C1=O (centres unmarked) [Compound 166]
[1]
  TI: 2.0
  MLD: 38.9 mg/kg
[2]
  Minimal effective analgesic dose: 20 mg/kg
  Minimal effective anesthetic dose: 20.0 mg/kg
  Onset time: 0.4 min
  Righting feflex duration: 20.7 min
  Sedation Duration: 64.0 min

## CC(C)OC(=O)CCC1N=C(c2ccccn2)c2cc3nc(C(F)(F)F)sc3cc2N(C)C1=O (centres unmarked) [Compound 181]
[1]
  TI: >1.0
  MLD: >40 mg/kg
[2]
  Minimal effective analgesic dose: 40 mg/kg
  Minimal effective anesthetic dose: 40.0 mg/kg
  Onset time: 0.8 min
  Righting feflex duration: 7.8 min
  Sedation Duration: 53.0 min

## Cc1cnc2n1-c1ccc(Br)cc1C(c1ccccn1)=NC2COC(=O)c1ccccc1 (centres unmarked) [Compound 191]
[1]
  TI: 6.8
  MLD: 34.0 mg/kg
[2]
  Minimal effective analgesic dose: 20 mg/kg
  Minimal effective anesthetic dose: 5.0 mg/kg
  Onset time: 0.45 to 0.53 min
  Righting feflex duration: 0.7 to 12.8 min
  Sedation Duration: 53.5 to 155.3 min

## Cc1ccc(C(=O)OCC2N=C(c3ccccn3)c3cc(Br)ccc3-n3c(C)cnc32)cc1 (centres unmarked) [Compound 192]
[1]
  TI: 2.0
  MLD: 10.0 mg/kg
[2]
  Minimal effective anesthetic dose: 5.0 mg/kg
  Onset time: 0.2 to 0.4 min
  Righting feflex duration: 5.9 to 14.9 min
  Sedation Duration: 156.7 to 200.0 min

## Cc1cnc2n1-c1ccc(Br)cc1C(c1ccccn1)=NC2COS(=O)c1ccccc1 (centres unmarked) [Compound 195]
[1]
  TI: >2.9
  MLD: >21.8 mg/kg
[2]
  Minimal effective analgesic dose: 21.8 mg/kg
  Minimal effective anesthetic dose: 7.5 mg/kg
  Onset time: 0.2 to 0.5 min
  Righting feflex duration: 5.3 to 76.6 min
  Sedation Duration: 78.5 to 195.4 min

## Cc1cnc2n1-c1ccc(Br)cc1C(c1ccccn1)=NC2COC(=O)CN(C)C (centres unmarked) [Compound 196]
[1]
  TI: 3.3
  MLD: 50 mg/kg
[2]
  Minimal effective anesthetic dose: 15 mg/kg
  Onset time: 0.2 to 1.4 min
  Righting feflex duration: 9.5 to 23.6 min
  Sedation Duration: 214.5 to 403.5 min

## CC(C)OC(=O)CN1N=C(c2ccccn2)c2cc(Br)ccc2N(C)C1=O [Compound 239]
[1]; SD
  TI: 8
  MLD: 40 mg/kg
[2]; [3]
  minimal effective dose: 10 mg/kg
[2]; [4]
  minimal effective dose: 5 mg/kg
[2]
  Onset time: 0.17 to 0.75 min
  Righting feflex duration: 1.30 to 11.58 min
  Sedation Duration: 17.72 to 23.57 min

## CC(C)COC(=O)CN1N=C(c2ccccn2)c2cc(Br)ccc2N(C)C1=O [Compound 240]
[1]; SD
  TI: 3
  MLD: 30 mg/kg
[2]; [3]
  minimal effective dose: 30 mg/kg
[2]; [4]
  minimal effective dose: 10 mg/kg
[2]
  Onset time: 0.30 to 0.48 min
  Righting feflex duration: 0.62 to 15.83 min
  Sedation Duration: 15.27 to 36.70 min

## CCC(C)OC(=O)CN1N=C(c2ccccn2)c2cc(Br)ccc2N(C)C1=O (centres unmarked) [Compound 241]
[1]; SD
  TI: 4
  MLD: 30 mg/kg
[2]; [4]
  minimal effective dose: 7.5 mg/kg
[2]
  Onset time: 0.43 to 0.90 min
  Righting feflex duration: 3.47 to 30.13 min
  Sedation Duration: 18.10 to 73.95 min

## CC[C@H](C)OC(=O)CN1N=C(c2ccccn2)c2cc(Br)ccc2N(C)C1=O [Compound 242]
[1]; SD
  TI: 4
  MLD: 30 mg/kg
[2]; [4]
  minimal effective dose: 7.5 mg/kg
[2]
  Onset time: 0.28 to 0.55 min
  Righting feflex duration: 5.05 to 18.42 min
  Sedation Duration: 19.98 to 46.92 min

## CC[C@@H](C)OC(=O)CN1N=C(c2ccccn2)c2cc(Br)ccc2N(C)C1=O [Compound 243]
[1]; SD
  TI: 6
  MLD: 30 mg/kg
[2]; [4]
  minimal effective dose: 5 mg/kg
[2]
  Onset time: 0.22 to 0.67 min
  Righting feflex duration: 0.65 to 19.85 min
  Sedation Duration: 21.98 to 55.45 min

## CN1C(=O)N(CC(=O)OC2CC2)N=C(c2ccccn2)c2cc(Br)ccc21 [Compound 244]
[1]; SD
  TI: 2.7
  MLD: 40 mg/kg
[2]; [4]
  minimal effective dose: 15 mg/kg
[2]
  Onset time: 0.15 to 0.18 min
  Righting feflex duration: 0.78 to 3.85 min
  Sedation Duration: 11.42 to 18.83 min

## CN1C(=O)N(CC(=O)OC2COC2)N=C(c2ccccn2)c2cc(Br)ccc21 [Compound 245]
[1]; SD
  TI: 4
  MLD: 40 mg/kg
[2]; [3]
  minimal effective dose: 20 mg/kg
[2]; [4]
  minimal effective dose: 10 mg/kg
[2]
  Onset time: 0.15 to 0.67 min
  Righting feflex duration: 1.27 to 1.40 min
  Sedation Duration: 11.02 to 18.83 min

## CCC(CC)OC(=O)CN1N=C(c2ccccn2)c2cc(Br)ccc2N(C)C1=O [Compound 247]
[1]; SD
  TI: 1.5
  MLD: 30 mg/kg
[2]; [3]
  minimal effective dose: 20 mg/kg
[2]; [4]
  minimal effective dose: 20 mg/kg
[2]
  Onset time: 0.28 min
  Righting feflex duration: 30.15 min
  Sedation Duration: 88.25 min

## C=CC(C)OC(=O)CN1N=C(c2ccccn2)c2cc(Br)ccc2N(C)C1=O (centres unmarked) [Compound 248]
[1]; SD
  TI: 4
  MLD: 40 mg/kg
[2]; [3]
  minimal effective dose: 20 mg/kg
[2]; [4]
  minimal effective dose: 10 mg/kg
[2]
  Onset time: 0.15 to 0.52 min
  Righting feflex duration: 2.97 to 38.32 min
  Sedation Duration: 138.4 to 240 min

## CC(C)C(C)OC(=O)CN1N=C(c2ccccn2)c2cc(Br)ccc2N(C)C1=O (centres unmarked) [Compound 249]
[1]; SD
  TI: 2
  MLD: 20 mg/kg
[2]; [3]
  minimal effective dose: 15 mg/kg
[2]; [4]
  minimal effective dose: 10 mg/kg
[2]
  Onset time: 0.50 to 0.62 min
  Righting feflex duration: 6.55 to 13.37 min
  Sedation Duration: 23.30 to 42.37 min

## CC(OC(=O)CN1N=C(c2ccccn2)c2cc(Br)ccc2N(C)C1=O)C1CC1 (centres unmarked) [Compound 250]
[1]; SD
  TI: >1
[2]; [4]
  minimal effective dose: 20 mg/kg
[2]
  Onset time: 0.53 min
  Righting feflex duration: 13.62 min
  Sedation Duration: 21.55 min

## C#C[C@H](C)OC(=O)CN1N=C(c2ccccn2)c2cc(Br)ccc2N(C)C1=O [Compound 252]
[1]; SD
  TI: 2
  MLD: 40 mg/kg
[2]; [3]
  minimal effective dose: 30 mg/kg
[2]; [4]
  minimal effective dose: 20 mg/kg
[2]
  Onset time: 0.43 min
  Righting feflex duration: 2.92 to 5.05 min
  Sedation Duration: 9.95 to 10.58 min

## CN1C(=O)N(CC(=O)OC2(C)COC2)N=C(c2ccccn2)c2cc(Br)ccc21 [Compound 253]
[1]; SD
  TI: 3
  MLD: 30 mg/kg
[2]; [3]
  minimal effective dose: 20 mg/kg
[2]; [4]
  minimal effective dose: 10 mg/kg
[2]
  Onset time: 0.87 to 0.88 min
  Righting feflex duration: 1.38 to 11.07 min
  Sedation Duration: 10.13 to 31.28 min
